Test results from PubChem BioAssay AID330 (DTP/NCI, 2004).
Values joined by “and” are separate entries in the source; they are usually repeats but may differ in a detail not shown here. Equal entries are not always repeated. Toxic doses and inconclusive results are not listed. Rule for the calls: active = survival T/C of 150% or more; inactive = T/C below 125% in these data. Peptide text beside a SMILES is read from it. * marks the point of attachment. Cbz = O=C(OCc1ccccc1)*

Tested on: P388 leukemia ip, CD2F1 mice, survival T/C
Assay: NCI In Vivo Anticancer Drug Screen. Data for tumor model P388 Leukemia (intraperitoneal) in CD2F1 (CDF1) mice
Settings: endpoint: median survival time, higher = longer survival
In short: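 Mice carrying the transplanted tumor received test compound or vehicle. Survival was recorded in each group, and the value is the treated-group measurement divided by that of the vehicle-treated control group.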

[1] = dose: 100.0 mg/kg/injection, schedule: Q01DX001 (ip), vehicle: saline with Tween-80
[2] = dose: 200.0 mg/kg/injection, schedule: Q01DX001 (ip), vehicle: saline with Tween-80
[3] = dose: 50.0 mg/kg/injection, schedule: Q01DX009 (ip), vehicle: Klucel (hydroxypropylcellulose) (HPC)
[4] = dose: 50.0 mg/kg/injection, schedule: Q01DX005 (ip), vehicle: saline with Tween-80
[5] = dose: 100.0 mg/kg/injection, schedule: Q01DX005 (ip), vehicle: saline with Tween-80
[6] = dose: 50.0 mg/kg/injection, schedule: Q01DX009 (ip), vehicle: saline
[7] = dose: 100.0 mg/kg/injection, schedule: Q01DX009 (ip), vehicle: saline
[8] = dose: 50.0 mg/kg/injection, schedule: Q01DX001 (ip), vehicle: Klucel (hydroxypropylcellulose) (HPC)
[9] = dose: 100.0 mg/kg/injection, schedule: Q01DX001 (ip), vehicle: Klucel (hydroxypropylcellulose) (HPC)
[10] = dose: 25.0 mg/kg/injection, schedule: Q01DX009 (ip), vehicle: saline

Measured: T/C

CC(C)N(CC#CCO)CCO
inactive: dose: 60.0 mg/kg/injection, schedule: Q01DX005 (ip), vehicle: saline 99 % of control | dose: 120.0 mg/kg/injection, schedule: Q01DX005 (ip), vehicle: saline 100 % of control | dose: 240.0 mg/kg/injection, schedule: Q01DX005 (ip), vehicle: saline 99 % of control

COC(=O)Nc1cnc(C=O)c(C)c1-c1ccc(OC)c(OC)c1OCc1ccccc1
inactive: dose: 12.5 mg/kg/injection, schedule: Q01DX009 (ip), vehicle: other 111 % of control | dose: 25.0 mg/kg/injection, schedule: Q01DX009 (ip), vehicle: other 119 % of control | dose: 50.0 mg/kg/injection, schedule: Q01DX009 (ip), vehicle: other 110 % of control | dose: 100.0 mg/kg/injection, schedule: Q01DX009 (ip), vehicle: other 103 % of control | dose: 200.0 mg/kg/injection, schedule: Q01DX009 (ip), vehicle: other 117 % of control | dose: 400.0 mg/kg/injection, schedule: Q01DX009 (ip), vehicle: other 90 % of control

Cc1nc(N)nc(N)c1CCCc1ccccc1
inactive: dose: 3.12 mg/kg/injection, schedule: Q01DX001 (ip), vehicle: Klucel (hydroxypropylcellulose) (HPC) 107 % of control | dose: 6.25 mg/kg/injection, schedule: Q01DX001 (ip), vehicle: Klucel (hydroxypropylcellulose) (HPC) 101 % of control | dose: 12.5 mg/kg/injection, schedule: Q01DX001 (ip), vehicle: Klucel (hydroxypropylcellulose) (HPC) 105 % of control | dose: 12.5 mg/kg/injection, schedule: Q01DX001 (ip), vehicle: saline 100 % of control

COc1ccc2c(c1)[C@]13CCN(C)[C@H](C2)[C@@H]1CCC1(C3)OCCO1
inactive: [1] 104 % of control | [2] 106 % of control

Nc1ccc(-c2csc(-c3ccc(Br)cc3)n2)cc1
inactive: dose: 12.5 mg/kg/injection, schedule: Q01DX009 (ip), vehicle: Klucel (hydroxypropylcellulose) (HPC) 100 % of control | dose: 25.0 mg/kg/injection, schedule: Q01DX009 (ip), vehicle: Klucel (hydroxypropylcellulose) (HPC) 91 % of control | [3] 88 % of control

C=CC1CN2CCC1CC2C(O)c1ccnc2ccc(OC)cc12 (stereo unspecified)
inactive: [4] 97 % of control | dose: 50.0 mg/kg/injection, schedule: Q04DX003 (ip), vehicle: alcohol 115 % of control | [5] 104 % of control | dose: 100.0 mg/kg/injection, schedule: Q04DX003 (ip), vehicle: alcohol 105 % of control | dose: 200.0 mg/kg/injection, schedule: Q04DX003 (ip), vehicle: alcohol 115 % of control

COC(=O)C(=O)C(C(=O)c1ccncc1)c1nc2n(c1O)C(=N)N=N2 (stereo unspecified)
inactive: dose: 50.0 mg/kg/injection, schedule: Q01DX005 (ip), vehicle: saline 97 % of control | dose: 100.0 mg/kg/injection, schedule: Q01DX005 (ip), vehicle: saline 97 % of control | dose: 200.0 mg/kg/injection, schedule: Q01DX005 (ip), vehicle: saline 100 % of control

CCC(c1ccc(OC)cc1)C(NCC(=O)N/N=C1\C[C@@H]2[C@H](CC[C@]3(C)[C@@H](O)CC[C@@H]23)c2c(C)cc(O)cc21)c1ccc(OC)cc1 (stereo partly specified)
inactive: [1] 106 % of control | [2] 107 % of control | dose: 400.0 mg/kg/injection, schedule: Q01DX001 (ip), vehicle: saline with Tween-80 101 % of control

COc1ccc(C2OC(=O)C=C(C)O2)cc1 (stereo unspecified)
inactive: dose: 60.0 mg/kg/injection, schedule: Q01DX005 (ip), vehicle: Klucel (hydroxypropylcellulose) (HPC) 104 % of control | dose: 120.0 mg/kg/injection, schedule: Q01DX005 (ip), vehicle: Klucel (hydroxypropylcellulose) (HPC) 98 % of control | dose: 240.0 mg/kg/injection, schedule: Q01DX005 (ip), vehicle: Klucel (hydroxypropylcellulose) (HPC) 117 % of control

CC(C)COC(CN(C)C)C(Cl)(Cl)Cl (stereo unspecified)
inactive: [6] 107 % of control | [7] 100 % of control | dose: 200.0 mg/kg/injection, schedule: Q01DX009 (ip), vehicle: saline 116 % of control

CCOc1nc(OC)c(Cc2c(OC)nc(OCC)c3c2CCCC3)c2c1CCCC2
inactive: dose: 47.5 mg/kg/injection, schedule: Q01DX005 (ip), vehicle: saline + Tween-80 + alcohol 102 % of control | dose: 95.0 mg/kg/injection, schedule: Q01DX005 (ip), vehicle: saline + Tween-80 + alcohol 90 % of control | dose: 190.0 mg/kg/injection, schedule: Q01DX005 (ip), vehicle: saline + Tween-80 + alcohol 87 % of control

O=C(O)C1C2OC2C2OC2C1C(=O)O (stereo unspecified)
inactive: dose: 25.0 mg/kg/injection, schedule: Q01DX001 (ip), vehicle: Klucel (hydroxypropylcellulose) (HPC) 89 % of control | [8] 92 % of control | [9] 88 % of control

NC(=O)C1CCCN1C(=O)C(Cc1ccc(O)cc1)NC(=O)OCc1ccccc1 (stereo not drawn) (Cbz-Tyr-Pro-NH2; configuration not given here)
inactive: [4] 104 % of control | [5] 97 % of control | dose: 200.0 mg/kg/injection, schedule: Q01DX005 (ip), vehicle: saline with Tween-80 94 % of control

CCCCCCCCCCCC[N+]1([O-])CCOCC1
inactive: dose: 0.75 mg/kg/injection, schedule: Q01DX009 (ip), vehicle: saline with Tween-80 93 % of control | dose: 1.5 mg/kg/injection, schedule: Q01DX009 (ip), vehicle: saline with Tween-80 91 % of control | dose: 3.0 mg/kg/injection, schedule: Q01DX009 (ip), vehicle: saline with Tween-80 93 % of control | dose: 12.5 mg/kg/injection, schedule: Q01DX009 (ip), vehicle: saline 91 % of control | [10] 101 % of control and 94 % of control | [6] 99 % of control and 97 % of control

O=C(NC(CO)C(O)c1ccc(N=Nc2cccc3ccccc23)cc1)C(Cl)Cl (stereo unspecified)
inactive: dose: 100.0 mg/kg/injection, schedule: Q01DX009 (ip), vehicle: saline with Tween-80 95 % of control | dose: 200.0 mg/kg/injection, schedule: Q01DX009 (ip), vehicle: saline with Tween-80 104 % of control | dose: 400.0 mg/kg/injection, schedule: Q01DX009 (ip), vehicle: saline with Tween-80 104 % of control

CC(=O)NS(=O)(=O)c1ccc(NC(=O)c2ccco2)cc1
inactive: dose: 50.0 mg/kg/injection, schedule: Q01DX009 (ip), vehicle: saline + alcohol 98 % of control | dose: 100.0 mg/kg/injection, schedule: Q01DX009 (ip), vehicle: saline + alcohol 104 % of control | dose: 200.0 mg/kg/injection, schedule: Q01DX009 (ip), vehicle: saline + alcohol 91 % of control

O=C(C=C(C(F)(F)F)C(F)(F)F)c1ccc(C(=O)C=C(C(F)(F)F)C(F)(F)F)cc1
inactive: dose: 50.0 mg/kg/injection, schedule: Q04DX003 (ip), vehicle: saline with Tween-80 118 % of control | dose: 100.0 mg/kg/injection, schedule: Q04DX003 (ip), vehicle: saline with Tween-80 100 % of control

OC(c1cc2c(Cl)cc(Cl)cc2c2cc(C(F)(F)F)ccc12)C1CCCCN1 (stereo unspecified)
inactive: dose: 6.25 mg/kg/injection, schedule: Q01DX009 (ip), vehicle: saline with Tween-80 101 % of control | dose: 12.5 mg/kg/injection, schedule: Q01DX009 (ip), vehicle: saline with Tween-80 100 % of control | dose: 25.0 mg/kg/injection, schedule: Q01DX009 (ip), vehicle: saline with Tween-80 100 % of control

Cc1nn2c(-c3cnns3)nnc2s1
inactive: [8] 107 % of control | [9] 107 % of control | dose: 200.0 mg/kg/injection, schedule: Q01DX001 (ip), vehicle: Klucel (hydroxypropylcellulose) (HPC) 100 % of control

N#CCCN(N)S(=O)(=O)c1ccc(Cl)cc1
inactive: dose: 50.0 mg/kg/injection, schedule: Q01DX005 (ip), vehicle: Klucel (hydroxypropylcellulose) (HPC) 97 % of control | dose: 100.0 mg/kg/injection, schedule: Q01DX005 (ip), vehicle: Klucel (hydroxypropylcellulose) (HPC) 99 % of control | dose: 200.0 mg/kg/injection, schedule: Q01DX005 (ip), vehicle: Klucel (hydroxypropylcellulose) (HPC) 96 % of control

O=C1CCC/C1=C1/SS/C(=C2/CCCC2=O)S1
inactive: [3] 101 % of control | dose: 100.0 mg/kg/injection, schedule: Q01DX009 (ip), vehicle: Klucel (hydroxypropylcellulose) (HPC) 102 % of control | dose: 200.0 mg/kg/injection, schedule: Q01DX009 (ip), vehicle: Klucel (hydroxypropylcellulose) (HPC) 98 % of control

CCN(CC)CC.[CH-]1CCCCC1.[CH-]1CCCCC1.[CH-]1CCCCC1.[Cl-].[N-]=C=NC(=O)NC1CCCCC1.[Sn+4]
inactive: dose: 1.5 mg/kg/injection, schedule: Q01DX005 (ip), vehicle: Klucel (hydroxypropylcellulose) (HPC) 92 % of control | dose: 3.0 mg/kg/injection, schedule: Q01DX005 (ip), vehicle: Klucel (hydroxypropylcellulose) (HPC) 92 % of control | dose: 6.0 mg/kg/injection, schedule: Q01DX005 (ip), vehicle: Klucel (hydroxypropylcellulose) (HPC) 102 % of control and 92 % of control

O=C1CP(=O)(O)CC2=C1CCC2
inactive: [10] 96 % of control | [6] 96 % of control | [7] 100 % of control
